US9062028B2, “Bicyclic nitrogen containing heteroaryl TGR5 receptor modulators” (Bristol-Myers Squibb Company, priority 2011, dated 2015)
pEC50: −log10 of the molar value. Where a name gives a salt, the structure may show the parent alone.

molecular target: T1, recombinant human TGR5 (Homo sapiens, UniProt Q8TDU6); experiment: cAMP assay (cAMP accumulation, HTRF) in CHOK1 cells stably expressing TGR5; assay type: cell-based; details: CHOK1 cells stably expressing human TGR5, 30 minutes at RT, 1% DMSO
T1 construct: expressed in transfected cells
T1 sequence (Q8TDU6 1-330): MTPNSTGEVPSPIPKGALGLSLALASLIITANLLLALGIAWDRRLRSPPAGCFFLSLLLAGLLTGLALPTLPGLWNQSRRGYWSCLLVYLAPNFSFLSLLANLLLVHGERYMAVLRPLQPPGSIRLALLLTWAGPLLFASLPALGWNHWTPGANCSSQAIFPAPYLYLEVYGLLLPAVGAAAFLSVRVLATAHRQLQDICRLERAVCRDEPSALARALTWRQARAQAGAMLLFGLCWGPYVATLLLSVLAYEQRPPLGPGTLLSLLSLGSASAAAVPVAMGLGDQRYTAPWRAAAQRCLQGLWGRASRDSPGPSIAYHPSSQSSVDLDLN
Summary of the method: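 Agonist-induced cAMP accumulation: stable TGR5-CHOK1 cells treated 30 min at RT with compound (1% DMSO) plus 0.1 mM IBMX. HTRF ratio converted to nM cAMP via standard curve; EC50 from four-parameter logistic fit, midpoint between baseline and maximum.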

Cc1cccc(OCCCC(=O)N2CCSc3c(-c4cnn(Cc5cccc(C(=O)NCCO)c5)c4)cccc32)c1C [Example 600, 3-((4-(4-(4-(2,3-Dimethylphenoxy)butanoyl)-3,4-dihydro-2H-benzo[b][1,4]thiazin-8-yl)-1H-pyrazol-1-yl)methyl)-N-(2-hydroxyethyl) benzamide] and Cc1c(Cl)cccc1OCCCC(=O)N1CCSc2c(-c3cnn(Cc4cccc(C(=O)NCS(=O)(=O)O)c4)c3)cccc21 [Example 565, (3-((4-(4-(4-(3-Chloro-2-methylphenoxy)butanoyl)-3,4-dihydro-2H-benzo[b][1,4]thiazin-8-yl)-1H-pyrazol-1-yl)methyl)benzamido) methanesulfonic acid] are within 0.2 log units of each other in pEC50: 7.38 for the first, 7.32 for the second.

Going from Cc1cccc(OCCCC(=O)N2CCCc3c(-c4cnn(Cc5cncc(C(=O)O)c5)c4)cccc32)c1C [Example 359, 5-((4-(1-(4-(2,3-Dimethylphenoxy)butanoyl)-1,2,3,4-tetrahydroquinolin-5-yl)-1H-pyrazol-1-yl)methyl) nicotinic acid, TFA salt] to Cc1c(OCCCC(=O)N2CCCc3c(-c4cnn(Cc5cccc(C(=O)O)c5)c4)cccc32)cccc1C(F)(F)F [Example 32, 3-((4-(1-(4-(2-Methyl-3-(trifluoromethyl)phenoxy)butanoyl)-1,2,3,4-tetrahydroquinolin-5-yl)-1H-pyrazol-1-yl)methyl)benzoic acid], the pEC50 rises from 5.78 to 6.23 (0.45 log units). The second is the more potent here.

Cc1c(Cl)cccc1OCCCC(=O)N1C[C@@H]2C[C@@H]2c2c(-c3cnn(Cc4cccc(N)c4)c3)cccc21 [Example 924A, 1-((1aR,7bS)-7-(1-(3-Aminobenzyl)-1H-pyrazol-4-yl)-1a,2-dihydro-1H-cyclopropa[c]quinolin-3(7bH)-yl)-4-(3-chloro-2-methylphenoxy)butan-1-one, TFA salt] and Cc1cccc(OCCCC(=O)N2CC3CC3c3c(-c4cnn(Cc5cccc(N)c5)c4)cccc32)c1C (stereo not drawn) [Example 69G, 1-(7-(1-(3-Aminobenzyl)-1H-pyrazol-4-yl)-1a,2-dihydro-1H-cyclopropa[c]quinolin-3(7bH)-yl)-4-(2,3-dimethylphenoxy)butan-1-one] are within 0.2 log units of each other in pEC50: 7.42 for the first, 7.29 for the second.

COC(=O)[C@@H](CCC(=O)O)NC(=O)c1ccc(Cl)c(Cn2cc(-c3cccc4c3[C@H]3C[C@H]3CN4C(=O)OCCOc3cccc(Cl)c3C)cn2)c1 [Example 672, (R)-4-(4-Chloro-3-((4-((1aR,7bS)-3-((2-(3-chloro-2-methylphenoxy)ethoxy)carbonyl)-1a,2,3,7b-tetrahydro-1H-cyclopropa[c]quinolin-7-yl)-1H-pyrazol-1-yl)methyl)benzamido)-5-methoxy-5-oxopentanoic acid] and Cc1c(Cl)cccc1OCCOC(=O)N1C[C@@H]2C[C@@H]2c2c(-c3cnn(Cc4cc(C(=O)NC5(CC(=O)O)COC5)ccc4Cl)c3)cccc21 [Example 698, 2-(3-(4-Chloro-3-((4-((1aR,7bS)-3-((2-(3-chloro-2-methylphenoxy)ethoxy)carbonyl)-1a,2,3,7b-tetrahydro-1H-cyclopropa[c]quinolin-7-yl)-1H-pyrazol-1-yl)methyl)benzamido)oxetan-3-yl)acetic acid] are within 0.2 log units of each other in pEC50: 7.37 for the first, 7.55 for the second.

Compared with Cc1cccc(N(CCCC(=O)N2CCCc3c(-c4cnn(Cc5cccc(C(=O)O)c5)c4)cccc32)C(=O)OC(C)(C)C)c1C [Example 933, 3-((4-(1-(4-(tert-Butoxycarbonyl(2,3-dimethylphenyl)amino)butanoyl)-1,2,3,4-tetrahydroquinolin-5-yl)-1H-pyrazol-1-yl)methyl)benzoic acid], Cc1cccc(OCCCC(=O)N2CCCc3c(-c4cnn(Cc5cccc(NC(=O)C(N)C(O)(C(F)(F)F)C(F)(F)F)c5)c4)cccc32)c1C (stereo not drawn) [Example 500, 2-Amino-N-(3-((4-(1-(4-(2,3-dimethylphenoxy)butanoyl)-1,2,3,4-tetrahydroquinolin-5-yl)-1H-pyrazol-1-yl)methyl)phenyl)-4,4,4-trifluoro-3-hydroxy-3-(trifluoromethyl) butanamide] is 0.92 log units higher in pEC50: 5.79 for the first, 6.71 for the second.

Cc1cccc(OCCCC(=O)N(C)c2cccc(-c3cnn(Cc4cccc(C(=O)O)c4)c3)c2)c1C [Example 339, 3-((4-(3-(4-(2,3-Dimethylphenoxy)-N-methylbutanamido)phenyl)-1H-pyrazol-1-yl)methyl) benzoic acid] and Cc1cccc(OCCOC(=O)N2CCOc3c(-c4cnn(Cc5ccc(C(=O)O)cc5)c4)cccc32)c1C [Example 28, 4-((4-(4-((2-(2,3-Dimethylphenoxy)ethoxy)carbonyl)-3,4-dihydro-2H-benzo[b][1,4]oxazin-8-yl)-1H-pyrazol-1-yl)methyl)benzoic acid] are within 0.2 log units of each other in pEC50: 5.59 for the first, 5.54 for the second.

CCOC(=O)CNC(=O)c1cccc(Cn2cc(-c3cccc4c3[C@H]3C[C@H]3CN4C(=O)CCCOc3cccc(Cl)c3C)cn2)c1 [Example 924B, Ethyl 2-(3-((4-((1aR,7bS)-3-(4-(3-chloro-2-methylphenoxy)butanoyl)-1a,2,3,7b-tetrahydro-1H-cyclopropa[c]quinolin-7-yl)-1H-pyrazol-1-yl)methyl)benzamido)acetate] and Cc1c(Cl)cccc1OCCCC(=O)N1C[C@@H]2C[C@@H]2c2c(-c3cnn(Cc4cccc(NC(=O)NCC(=O)O)c4)c3)cccc21 [Example 916, 2-(3-(3-((4-((1aR,7bS)-3-(4-(3-Chloro-2-methylphenoxy)butanoyl)-1a,2,3,7b-tetrahydro-1H-cyclopropa[c]quinolin-7-yl)-1H-pyrazol-1-yl)methyl)phenyl)ureido) acetic acid] are within 0.2 log units of each other in pEC50: 7.57 for the first, 7.43 for the second.

Compared with Cc1c(Cl)cccc1OCCCC(=O)N1CCCOc2c(-c3cnn(Cc4cccc(C(=O)NCS(=O)(=O)O)c4)c3)cccc21 [Example 146R, (3-((4-(5-(4-(3-Chloro-2-methylphenoxy)butanoyl)-2,3,4,5-tetrahydrobenzo[b][1,4]oxazepin-9-yl)-1H-pyrazol-1-yl)methyl)benzamido) methanesulfonic acid], Cc1cccc(OCCCC(=O)N2CCCc3c(-c4cnn(Cc5cccc(S(=O)(=O)NCCS(=O)(=O)O)c5)c4)cccc32)c1C [Example 110T, 2-(3-((4-(1-(4-(2,3-Dimethylphenoxy)butanoyl)-1,2,3,4-tetrahydroquinolin-5-yl)-1H-pyrazol-1-yl)methyl)phenylsulfonamido) ethanesulfonic acid] is 1.09 log units lower in pEC50: 7.31 for the first, 6.22 for the second. The first is the more potent here.

Cc1c(Cl)cccc1OCCOC(=O)N1CC(F)(F)COc2c(-c3cnn(Cc4c(F)cc(C(=O)O)cc4Cl)c3)cccc21 [Example 336, 3-Chloro-4-((4-(5-((2-(3-chloro-2-methylphenoxy)ethoxy)carbonyl)-3,3-difluoro-2,3,4,5-tetrahydrobenzo[b][1,4]oxazepin-9-yl)-1H-pyrazol-1-yl)methyl)-5-fluorobenzoic acid] and Cc1c(Cl)cccc1OCCOC(=O)N1C[C@@H]2C[C@@H]2c2c(-c3cnn(Cc4ccc(C(=O)O)cc4Cl)c3)cccc21 [Example 436, 3-Chloro-4-((4-((1aR,7bS)-3-((2-(3-chloro-2-methylphenoxy)ethoxy)carbonyl)-1a,2,3,7b-tetrahydro-1H-cyclopropa[c]quinolin-7-yl)-1H-pyrazol-1-yl)methyl)benzoic acid] are within 0.2 log units of each other in pEC50: 6.76 for the first, 6.77 for the second.

Cc1cccc(OCCCC(=O)N2CCCc3c(-c4cccc(COC(=O)NCC(C)(C)C(=O)O)c4)cccc32)c1C [Example 257, 3-((3-(1-(4-(2,3-Dimethylphenoxy)butanoyl)-1,2,3,4-tetrahydroquinolin-5-yl)benzyloxy)carbonylamino)-2,2-dimethylpropanoic acid] and Cc1cccc(OCCCC(=O)N2CCCc3c(-c4cccc(COC(=O)NCC(C)C(=O)O)c4)cccc32)c1C (stereo not drawn) [Example 270, 3-((3-(1-(4-(2,3-Dimethylphenoxy)butanoyl)-1,2,3,4-tetrahydroquinolin-5-yl)benzyloxy)carbonylamino)-2-methylpropanoic acid] are within 0.2 log units of each other in pEC50: 6.17 for the first, 6.22 for the second.

Cc1c(Cl)cccc1OCCCC(=O)N1CCSc2c(-c3cnn(Cc4c(F)cc(C(=O)NCCC[C@H](N)C(=O)O)cc4Cl)c3)cccc21 [Example 583, (S)-2-Amino-5-(3-chloro-4-((4-(4-(4-(3-chloro-2-methylphenoxy)butanoyl)-3,4-dihydro-2H-benzo[b][1,4]thiazin-8-yl)-1H-pyrazol-1-yl)methyl)-5-fluorobenzamido) pentanoic acid] and Cc1cccc(OCCCC(=O)N2CC3CC3c3c(-c4cnn(Cc5c(F)cc(C(=O)NCCC[C@H](NC(=N)N)C(=O)O)cc5Cl)c4)cccc32)c1C (stereo partly drawn) [Example 69F, (2S)-5-(3-Chloro-4-((4-(3-(4-(2,3-dimethylphenoxy)butanoyl)-1a,2,3,7b-tetrahydro-1H-cyclopropa[c]quinolin-7-yl)-1H-pyrazol-1-yl)methyl)-5-fluorobenzamido)-2-guanidinopentanoic acid] are within 0.2 log units of each other in pEC50: 7.37 for the first, 7.27 for the second.

Compared with Cc1cccc(OCCCC(=O)N2CCCc3c(-c4cnn(CC(=O)C(C)(C)CC(=O)O)c4)cccc32)c1C [Example 493, 5-(4-(1-(4-(2,3-Dimethylphenoxy)butanoyl)-1,2,3,4-tetrahydroquinolin-5-yl)-1H-pyrazol-1-yl)-3,3-dimethyl-4-oxopentanoic acid], Cc1c(Cl)cccc1OCCOC(=O)N1C[C@@H]2C[C@@H]2c2c(-c3cnn(Cc4cccc(NC(=O)NCS(=O)(=O)O)c4)c3)cccc21 [Example 527, (3-(3-((4-((1aR,7bS)-3-((2-(3-Chloro-2-methyl-phenoxy)ethoxy)carbonyl)-1a,2,3,7b-tetrahydro-1H-cyclopropa[c]quinolin-7-yl)-1H-pyrazol-1-yl)methyl)phenyl)ureido) methanesulfonic acid] is 1.36 log units higher in pEC50: 5.38 for the first, 6.74 for the second.
